Data taken from patent publication US5051417A, “Indolythiadiazines for treating heart failure” (Les Laboratoires Beecham S.A., priority 1988, dated 1991).
Structures can show the parent of a compound that is named as a salt.

Test system: canine cardiac myofibrillar Ca++-dependent Mg++-ATPase
Assay: Measurement of myofibrillar Ca++-dependent Mg++-ATPase activity on canine cardiac myofibrils
Assay type: biochemical
Settings: pH 7.0, 21° C.; for max (percent change of maximal ATPase activity): pCa=5.47
Procedure: 1. Measurement of myofibrillar Ca++-dependent Mq++-ATPase activity The effect on myofibrillar Ca++sensitivity and on maximal activity of myofibrillar Ca++-dependent Mg++-ATPase was determined on canine cardiac myofibrils. (a) Contractile protein preparation Cardiac myofibrils free of membrane contaminants were prepared from left ventricular tissue of dog hearts using a modification of the method described by SOLARO et al, Biochem. Biophys. Acta, 245, 259-262, (1971). Before centrifugation, the heart homogenate was filtered through gauze. After Triton X-100 treatments, the myofibrillar fraction was washed once by resuspension and centrifugation in 10 volumes of 1 mM EGTA, […], 30 mM imidazole, 2 mM MgCl2, pH 7.0. The pellet was then washed three times in 10 volumes of the same buffer without EGTA. Before the last centrifugation, the suspension of myofibrils was filtered through a stainless steel sieve with 0.25 mm meshes. Myofibrils were kept in pellet overnight. Before use, the pellet was suspended in a small amount of buffer, the protein concentration was determined by the method of BRADFORD M., Anal. Biochem., 1976, 72, 248 and adjusted in order to have a concentration between 6 and 7 mg/ml. (b) Myofibrillar ATPase activity Ca++-dependent myfibrillar ATPase activity was determined at 21° C., pH 7.0, by measuring the rate of release of inorganic phosphate. All assays were performed within 24hrs. of final purification, using the method described by SOLARO and […]., 51. 290-4,(1982). Reaction mixtures (4 ml) containing 0.6-0.7 mg/ml myofibrillar protein, 80mM KCl, 20 mM imidazole, 3 mM MgCl2, 1 mM EGTA, the desired amount of CaCl2, and the indicated concentration of drug or appropriate vehicle were preincubated for 6 min. prior to assay. The amount of CaCl2 was varied between 0 and 0.9 mM and the pCa (-log free Ca++) computed using 2.514×10^6 M^-1 as the apparent affinity of Ca++for EGTA at pH 7.0. Reactions were initiated by the addition of Na2 ATP to final concentration of 2 mM. After an incubation period of 12 min., reactions were quenched by the addition of an equal volume of ice-cold 10% trichloroacetic acid. The protein was pelleted by centrifugation (2000 g, 15 min.) and Pi was assayed in the supernatant fraction using a modification of the method described by LANZETTA et al, Anal. Biochem., 100, 95-97, (1979). The following solutions were prepared: (1) 3.7% ammonium heptamolybdate in 0.12 N H2 SO4 (2) 0.074% malachite green oxalate in 1% polyvinylic alcohol. The colour reagent was prepared by mixing an equal volume of solution (1) and (2) 15 min. before the assay. For the assay, 1,700 μl of 1% H2 SO4 and 1 ml of colour reagent were added to 100 μl of sample. Colour development occurred at room temperature for 30 min. and was quenched by the addition of 200 μl of 1M tri-potassium citrate. The absorbance was measured at 620 millimicrons. The effect of each compound, tested at the indicated concentration, on the relation between pCa and percent activation was determined taking 100% for the maximum ATPase activity obrained with vehicle alone. The effect on Ca++sensitivity was quantified by measuring the shift of the pCa giving 50% of the maximal control ATPase activity. The effect on maximal ATPase activity was expressed as the percent change of ATPase activity for pCa=5.47. Mean effects on myofibrillar ATPase activity were obtained from 1 to 5 preparations, (compounds tested at 2×10^-4 M).

SMILES | max (percent change of maximal ATPase activity) (30 μM) | pCa (shift of the pCa giving 50% of the maximal control ATPase activity; Ca++ sensitivity) (30 μM) | max (percent change of maximal ATPase activity) (10 μM) | pCa (shift of the pCa giving 50% of the maximal control ATPase activity; Ca++ sensitivity) (10 μM)
CC1SC(=O)NN=C1c1ccc2c(c1)C(=NNc1ccc(Cl)cc1)C(=O)N2 (stereo not shown) [Example 29, 5-(3,6-Dihydro-6-methyl-2-oxo-2H-1,3,4-thiadiazin-5-yl) -1H-indole-2,3-dione 3-[(4-chloro)phenylhydrazone]] | 25 ± 4% | +0.78 ± 0.1 | – | –
CC1SC(=O)NN=C1c1ccc2c(c1)C(=NNCc1ccccc1)C(=O)N2 (stereo not shown) [Example 22, 5-(3,6-Dihydro-6-methyl-2-oxo-2H-1,3,4-thiadiazin-5-yl) -1H-indole-2,3-dione 3-[(phenylmethyl)hydrazone]] | 21 ± 4% | +0.64 ± 0.1 | – | –
Cc1ccc(NN=C2C(=O)Nc3ccc(C4=NNC(=O)SC4C)cc32)cc1 (stereo not shown) [Example 21, 5-(3,6-Dihydro-6-methyl-2-oxo-2H-1,3,4-thiadiazin-5-yl) -1H-indole-2,3-dione 3-[(4-methyl)phenylhydrazone]] | -42 ± 7% | +1.30 ± 0.00 | 41 ± 2% | 1.07 ± 0.02
COC(=O)NN=C1C(=O)Nc2ccc(C3=NNC(=O)SC3C)cc21 (stereo not shown) [Example 15, Methyl 2-[2,3-dihydro-5-(3,6-dihydro-6-methyl-2-oxo-2H -1,3,4-thiadiazin-5-yl)-2-oxo-1H-indol-3-ylidene]hydrazine carboxylate] | 2 ± 4% | +0.08 ± 0.04 | – | –
CC1SC(=O)NN=C1c1ccc2c(c1)C(=NNc1ccc(C(F)(F)F)cc1)C(=O)N2 (stereo not shown) [Example 42, 5-(3,6-Dihydro-6-methyl-2-oxo-2H-1,3,4-thiadiazin-5-yl) -1H-indole-2,3-dione 3-[4-trifluoromethylphenylhydrazone]] | 11 ± 4% | +0.30 ± 0.02 | – | –
CCOC(=O)CON=C1C(=O)Nc2ccc(C3=NNC(=O)SC3C)cc21 (stereo not shown) [Example 23, Ethyl[[[2,3-dihydro-5-(3,6-dihydro-6-methyl-2-oxo-2H -1,3,4-thiadiazin-5-yl)-2-oxo-1H-indol-3-ylidene]amino]oxy]lacetate] | 8 ± 6% | +0.05 ± 0.02 | – | –
CC1SC(=O)NN=C1c1ccc2c(c1)C(=NN(C)c1ccccc1)C(=O)N2 (stereo not shown) [Example 26, 5-(3,6-Dihydro-6-methyl-2-oxo-2H-1,3,4-thiadiazin-5-yl) -1H-indole-2,3-dione 3-(methylphenylhydrazone)] | 17 ± 2% | +0.65 ± 0.05 | – | –
CC1SC(=O)NN=C1c1ccc2c(c1)C(=Cc1cccnc1)C(=O)N2 (stereo not shown) [Example 19, 1,3-Dihydro-5-(3,6-dihydro-6-methyl-2-oxo-2H-1,3,4-thiadiazin-5-yl)-3-(3-pyridylmethylene)-2H-indol-2-one] | -14 ± 7% | +0.23 ± 0.06 | – | –
CC1SC(=O)NN=C1c1ccc2c(c1)C(=Cc1ccccc1[N+](=O)[O-])C(=O)N2 (stereo not shown) [Example 16, 1,3-Dihydro-5-(3,6-dihydro-6-methyl-2-oxo-2H-1,3,4-thiadiazin-5-yl)-3-(2-nitrophenylmethylene)-2H-indol-2-one] | 1 ± 4% | +0.17 ± 0.03 | – | –
CC1SC(=O)NN=C1c1ccc2c(c1)C(=Cc1ccccn1)C(=O)N2 (stereo not shown) [Example 20, 1,3-Dihydro-5-(3,6-dihydro-6-methyl-2-oxo-2H-1,3,4-thiadiazin-5-yl)-3-(2-pyridylmethylene)-2H-indol-2-one] | -13 ± 5% | +0.19 ± 0.08 | – | –
CC1SC(=O)NN=C1c1ccc2c(c1)C(=NNC(=O)c1cccnc1)C(=O)N2 (stereo not shown) [Example 38, 3-Pyridinecarboxylic acid, 2-[2,3-dihydro-5-(3,6-dihydro-6-methyl-2-oxo-2H-1,3,4-thiadiazin-5-yl)-2-oxo-1H-indol-3-ylidenelhydrazide hydrochloride] | 34 ± 5% | +1.05 ± 0.06 | 34 ± 7% | 1.10 ± 0.02
CC1SC(=O)NN=C1c1ccc2c(c1)C(=NNc1ccccn1)C(=O)N2.Cl (stereo not shown) [Example 35, 5-(3,6-Dihydro-6-methyl-2-oxo-2H-1,3,4-thiadiazin-5-yl)-1H-indole-2,3-dione 3-(2-pyridylhydrazone) monohydrochloride] | 0 ± 1% | +0.05 ± 0.06 | – | –
CC1SC(=O)NN=C1c1ccc2c(c1)C(=NNC1CCCCC1)C(=O)N2 (stereo not shown) [Example 25, 5-(3,6-Dihydro-6-methyl-2-oxo-2H-1,3,4-thiadiazin-5-yl) -1H-indole-2,3-dione 3-(cyclohexylhydrazone)] | 22 ± 3% | +0.49 ± 0.06 | – | –
COc1ccc(NN=C2C(=O)Nc3ccc(C4=NNC(=O)SC4C)cc32)cc1 (stereo not shown) [Example 28, 5-(3,6-Dihydro-6-methyl-2-oxo-2H-1,3,4-thiadiazin-5-yl) -1H-indole-2,3-dione 3-[(4-methoxy)phenylhydrazone]] | 20 ± 5% | +0.94 ± 0.05 | – | –

The remaining lines, values ahead:

max (percent change of maximal ATPase activity) (30 μM) | pCa (shift of the pCa giving 50% of the maximal control ATPase activity; Ca++ sensitivity) (30 μM) | max (percent change of maximal ATPase activity) (10 μM) | pCa (shift of the pCa giving 50% of the maximal control ATPase activity; Ca++ sensitivity) (10 μM) | SMILES
-1 ± 7% | +0.10 ± 0.04 | – | – | CC1SC(=O)NN=C1c1ccc2c(c1)C(=NNc1c(F)c(F)c(F)c(F)c1F)C(=O)N2 (stereo not shown) [Example 32, 5-(3,6-Dihydro-6-methyl-2-oxo-2H-1,3,4-thiadiazin-5-yl) -1H-indole-2,3-dione 3-(pentafluorophenylhydrazone)]
-1 ± 0% | +0.05 ± 0.03 | – | – | CC1SC(=O)NN=C1c1ccc2c(c1)C(=NNc1ccc(Cl)c(Cl)c1)C(=O)N2 (stereo not shown) [Example 27, 5-(3,6-Dihydro-6-methyl-2-oxo-2H-1,3,4-thiadiazin-5-yl) -1H-indole-2,3-dione 3-(3,4-dichloroohenyl)hydrazone]
24 ± 5% | +0.92 ± 0.06 | – | – | CC1SC(=O)NN=C1c1ccc2c(c1)C(=NNc1cccnc1)C(=O)N2 (stereo not shown) [Example 36, 5-(3,6-Dihydro-6-methyl-2-oxo-2H-1,3,4-thiadiazin-5-yl) -1H-indole-2,3-dione 3-(3-pyridylhydrazone)]
3 ± 1% | +0.37 ± 0.05 | – | – | CC#N.CC1SC(=O)NN=C1c1ccc2c(c1)C(=NNc1ccc(S(C)(=O)=O)cc1)C(=O)N2 (stereo not shown) [Example 33]
7 ± 2% | +0.11 ± 0.04 | – | – | CC1SC(=O)N(C)N=C1c1ccc2c(c1)C(=NNc1ccccc1)C(=O)N2 (stereo not shown) [Example 41]
28 ± 6% | +1.01 ± 0.07 | – | – | CC1SC(=O)NN=C1c1ccc2c(c1)C(=NNc1ccc(F)cc1)C(=O)N2 (stereo not shown) [Example 30]
-9 ± 1% | +0.14 ± 0.03 | – | – | CC1SC(=O)NN=C1c1ccc2c(c1)C(=NNC(=O)c1ccccn1)C(=O)N2 (stereo not shown) [Example 37]
